Reference: patent US20110251238A1, “PPAR AGONIST COMPOSITIONS AND METHODS OF USE” (BIOPHARMED, priority 2008, published 2011)
Converted amounts (≈) assume the structure as drawn. Where two headings read alike, the source gives them in different places.

How the values were obtained:
[1] = test system: A549 (human lung adenocarcinoma epithelial); experiment: Growth inhibition, MTT colorimetric assay, A549; format: cell-based; details: read-out: IC50 A549
Description: (§1) A549 (human lung adenocarcinoma epithelial), BxPC3 (pancreatic cancer), LoVo (colon cancer), MCF-7 (epithelial breast cancer), PC3 (human prostate cancer), Hs683 (human glioma), T98G (glioblastoma), U373 (human glioblastoma-astrocytoma), U138 MG (human glioma), epithelial-like), SKMEL28 (human melanoma), B16-F10 (mouse melanoma) and RhTP (rhabdomyosarcoma) cell lines were cultured in presence of the drugs for 3 days. The cytotoxic activity is expressed as (IC50). Inhibition of cell proliferation measured by the MTT colorimetric assay. The values reported in Table 4 are means of six distinct values.

[2] = test system: BxPC3 (pancreatic cancer); experiment: Growth inhibition, MTT colorimetric assay, BxPC3; format: cell-based, human; details: read-out: IC50 BxPC3
Description: Cells are cultured at 37° C. in Falcon culture dishes, incubated at 5% CO2 in a suitable culture medium available from Invitrogen Corp. Anti-proliferative activity is determined by an MTT assay (bromide of (3-[4,5-dimethylthiazolium-yl]diphenyltetrazolium)). According to one standard protocol, absorbance is measured at 570 nm (see Dumont et al. (2007) Neoplasia 9: 766-776.
as §1

LoVo (colon cancer) = experiment: Growth inhibition, MTT colorimetric assay, LoVo; format: cell-based; details: read-out: IC50 LoVo
Description: as §1

[3] = test system: MCF-7 (epithelial breast cancer); experiment: Growth inhibition, MTT colorimetric assay, MCF7; format: cell-based; details: read-out: IC50 MCF7
Description: as §1

[4] = test system: PC3 (human prostate cancer); experiment: Growth inhibition, MTT colorimetric assay, PC3; format: cell-based; details: read-out: IC50 PC3
Description: as §1, with “Compounds that met the criteria for activity on KB3 cells were further tested for drug growth inhibitory activity in 5 carcinoma, 6 glioma and 3 melanoma cell lines, shown in Table 4. A549” for “A549”, “values. The standard errors are <5% as compared to the mean values.” for “values.”

Hs683 (human glioma) = experiment: Growth inhibition, MTT colorimetric assay, HS683; format: cell-based; details: read-out: IC50 HS683
Description: as §1

T98G (glioblastoma) = experiment: cells; format: cell-based; details: read-out: IC50 T98G
Description: as §1

[5] = test system: U373 (human glioblastoma-astrocytoma); experiment: Growth inhibition, MTT colorimetric assay, U373; format: cell-based; details: read-out: IC50 U373
Description: as §1, with “Compounds that met the criteria for activity on KB3 cells were further tested for drug growth inhibitory activity in 5 carcinoma, 6 glioma and 3 melanoma cell lines, shown in Table 4. A549” for “A549”, “values. The standard errors are <5% as compared to the mean values.” for “values.”

U138 MG (human glioma) = experiment: Growth inhibition, MTT colorimetric assay, U138; format: cell-based; details: read-out: IC50 U138
Description: as §1, with “Compounds that met the criteria for activity on KB3 cells were further tested for drug growth inhibitory activity in 5 carcinoma, 6 glioma and 3 melanoma cell lines, shown in Table 4. A549” for “A549”, “values. The standard errors are <5% as compared to the mean values.” for “values.”

GL19 = experiment: Growth inhibition, MTT colorimetric assay, GL19; format: cell-based; details: read-out: IC50 GL19
Description: as §1, with “Compounds that met the criteria for activity on KB3 cells were further tested for drug growth inhibitory activity in 5 carcinoma, 6 glioma and 3 melanoma cell lines, shown in Table 4. A549” for “A549”, “values. The standard errors are <5% as compared to the mean values.” for “values.”

RhTP (rhabdomyosarcoma) = experiment: Growth inhibition, MTT colorimetric assay, RhTp; format: cell-based; details: read-out: IC50 RhTp
Description: as §1, with “Compounds that met the criteria for activity on KB3 cells were further tested for drug growth inhibitory activity in 5 carcinoma, 6 glioma and 3 melanoma cell lines, shown in Table 4. A549” for “A549”, “values. The standard errors are <5% as compared to the mean values.” for “values.”

KaKa = experiment: Growth inhibition, MTT colorimetric assay, KaKa; format: cell-based; details: read-out: IC50 KaKa
Description: as §1, with “Compounds that met the criteria for activity on KB3 cells were further tested for drug growth inhibitory activity in 5 carcinoma, 6 glioma and 3 melanoma cell lines, shown in Table 4. A549” for “A549”, “values. The standard errors are <5% as compared to the mean values.” for “values.”

Host = experiment: Growth inhibition, MTT colorimetric assay, Host; format: cell-based; details: read-out: IC50 Host
Description: as §1, with “Compounds that met the criteria for activity on KB3 cells were further tested for drug growth inhibitory activity in 5 carcinoma, 6 glioma and 3 melanoma cell lines, shown in Table 4. A549” for “A549”, “values. The standard errors are <5% as compared to the mean values.” for “values.”

SKMEL28 (human melanoma) = experiment: Growth inhibition, MTT colorimetric assay, SKMEL-28; format: cell-based; details: read-out: IC50 SKMEL-28
Description: as §1, with “Compounds that met the criteria for activity on KB3 cells were further tested for drug growth inhibitory activity in 5 carcinoma, 6 glioma and 3 melanoma cell lines, shown in Table 4. A549” for “A549”, “values. The standard errors are <5% as compared to the mean values.” for “values.”

B16-F10 (mouse melanoma) = experiment: Growth inhibition, MTT colorimetric assay, B16F10; format: cell-based; details: read-out: IC50 B16F10
Description: as §1, with “Compounds that met the criteria for activity on KB3 cells were further tested for drug growth inhibitory activity in 5 carcinoma, 6 glioma and 3 melanoma cell lines, shown in Table 4. A549” for “A549”, “values. The standard errors are <5% as compared to the mean values.” for “values.”

[6] = test system: bloodstream forms of T. brucei and T. congolense; experiment: Trypanocidal activity in vitro, Alamar Blue assay; format: cell-based, Trypanosoma brucei and T. congolense
Text: Trypanosoma brucei and T. congolense are the causative agents of sleeping sickness in humans and nagana in cattle, respectively. The protozoan parasites live extracellularlyin blood and tissue fluids of mammals and are transmitted by the bite of infected tsetse flies (Glossina spp.). Here the trypanocidal activity against bloodstream forms of T. brucei and T. congolense of bis-8-hydroxy quinoline N-substituted benzylamines derivatives was investigated in vitro, according to methods described in. Steverding et al. (2006) Kinetoplastid Biology and Disease, 5(3): 1-5; Hongmance et al., (2007) Antimicrob. Agents Chemother. 51:1105-1106; and Zhao et al., (2005) Bio-org. Med. Chem.; 13: 3921-3926. Cells were seeded into 96-well tissue culture plates in 200 μl medium containing various concentrations of analogues dissolved in H2O. The controls contained the respective solvent alone. […] After 24 h (trypanosomes) or 43 h (HL-60) incubation, 20 μl of the colorimetric viability indicator Alamar Blue® was added to each well. The cells were incubated for a further 24 h (trypanosomes) or 5 h (HL-60) so that the total incubation time was 48 h. Then, the plates were read on a Dynatech MR5000ELISA reader (Denkendorf, Germany),using a test wavelength of 550 nm and a reference wave length of 630 nm. Each test was set up in duplicate and repeated three times. For comparison, the general cytotoxicity of the compounds was assayed with human myeloid leukaemia HL-60 cells. The anti-trypanosomal activities and the general cytotoxicities of the new analogues were evaluated using the Alamar Blue® assay.

[7] = test system: KB3 (epitheloid lung cancer) cell lines; experiment: Cell growth inhibition (cytotoxicity), MTS assay, KB3 cell line; format: cell-based; details: Table 3A, MTS assay, triplicate, read-out: KB3 IC50
Description: Cell growth inhibition was determined by the MTS assay; the number of viable cells were proportional to the extent of formazan production in the presence or absence of drugs. […]

[8] = carcinoma, 3 days with drug, means of six values, unit inferred
[9] = glioma, 3 days with drug, means of six values, unit inferred
[10] = 3 days with drug, means of six values, unit inferred
[11] = melanoma, 3 days with drug, means of six values, unit inferred
[12] = 50% growth inhibition, 48 h total incubation, read-out: GI50
[13] = lowest concentration at which all cells were killed, 48 h total incubation, read-out: MIC

Structure (SMILES) | IC50 [1, 8] [nM] | IC50 [2, 8] [nM] | IC50 (LoVo (colon cancer); [8]) [nM] | IC50 [3, 8] [nM] | IC50 [4, 8] [nM] | IC50 (Hs683 (human glioma); [9]) [nM] | IC50 (T98G (glioblastoma); [9]) [nM] | IC50 [5, 9] [nM] | IC50 (U138 MG (human glioma); [9]) [nM] | IC50 (GL19; [10]) [µM] | IC50 (RhTP (rhabdomyosarcoma); [10]) [nM] | IC50 (KaKa; [10]) [nM] | IC50 (Host; [10]) [nM] | IC50 (SKMEL28 (human melanoma); [11]) [µM] | IC50 (B16-F10 (mouse melanoma); [11]) [nM] | GI50 [6, 12] [nM] | MIC [6, 13] [µM] | other results
Oc1ccc(CN(Cc2ccc(O)c3ncccc23)CC2CCCCC2)c2cccnc12 [BPM19,219, 5,5′-cyclohexylmethylazanediyl-bis-[(methylene)di(quinolin-8-ol)]] | 369 | 3810 | 357 | 365 | 421 | 584 | 486 | 2570 | 446 | 8.97 | 865 | 5940 | 1540 | > 10 | 873 | 2950 ± 180 | 10 (≈ 4.28 µg/mL) | 
Oc1ccc(CN(Cc2ccccc2C(F)(F)F)Cc2ccc(O)c3ncccc23)c2cccnc12 [BPM19,178, 5,5-(2-(Trifluoromethyl)benzylazanediyl)bis(methylene)diquinolin-8-ol] | 46 | 274 | 93 | 88 | 179 | 64 | 210 | 78 | 80 | 0.472 | 87 | 887 | 912 | 6.38 | 98 | 330 ± 10 | 1 (≈ 0.489 µg/mL) | IC50 [7]: 100 nM
Oc1ccc(CN(Cc2cccs2)Cc2ccc(O)c3ncccc23)c2cccnc12 [BPM18,202, 5,5′-(thiophen-2-ylmethylazanediyl)bis(methylene)diquinolin-8-ol] |  |  |  |  |  |  |  |  |  |  |  |  |  |  |  |  |  | IC50 ([7]; KB3): 2 nM; IC50 ([1]; Homo sapiens, A549, 72 h): 27 nM; IC50 ([2]; Homo sapiens, BXPC-3, 72 h): 89 nM; IC50 (LoVo (colon cancer); Homo sapiens, LoVo, 72 h): 40 nM; IC50 ([3]; Homo sapiens, MCF7, 72 h): 35 nM; IC50 ([4]; Homo sapiens, 72 h): 44 nM; IC50 (Hs683 (human glioma); Homo sapiens, Hs 683, 72 h): 35 nM; IC50 (T98G (glioblastoma); Homo sapiens, T98G, 72 h): 88 nM; IC50 ([5]; Homo sapiens, U373 MG, 72 h): 85 nM; IC50 (U138 MG (human glioma); Homo sapiens, U138-MG, 72 h): 44 nM; IC50 (GL19; GL19, 72 h): 3.45 µM; IC50 (RhTP (rhabdomyosarcoma); 72 h): 79 nM; IC50 (KaKa; 72 h): 1760 nM; IC50 (Host; 72 h): 1730 nM; IC50 (SKMEL28 (human melanoma); Homo sapiens, SK-MEL-28, 72 h): 4.83 µM; IC50 (B16-F10 (mouse melanoma); Mus musculus, B16-F10, 72 h): 86 nM; GI50 ([6]; 48 h): 310 ± 10 nM; MIC ([6]; 48 h): 1 µM (≈ 0.428 µg/mL)
